Assay results as given in patent US20250262201A1, “COMPOUNDS AND METHODS USEFUL FOR STABILIZING PHENYLALANINE HYDROXYLASE MUTATIONS” (Agios Pharmaceuticals, Inc., priority 2022, published 2025).

What follows are molecules tested against T1, human PAH with the R408W mutation (Homo sapiens, UniProt P00439, R408W) (assay: Cell Based Phenylalanine Flux Assay). Settings: A375 cells expressing human R408W PAH; 24 hrs compound incubation; 13C-Tyrosine by LC-MS; average where tested multiple times; read-out: AC50.
T1 construct: expressed in transfected cells
T1 sequence (P00439 1-452 R408W): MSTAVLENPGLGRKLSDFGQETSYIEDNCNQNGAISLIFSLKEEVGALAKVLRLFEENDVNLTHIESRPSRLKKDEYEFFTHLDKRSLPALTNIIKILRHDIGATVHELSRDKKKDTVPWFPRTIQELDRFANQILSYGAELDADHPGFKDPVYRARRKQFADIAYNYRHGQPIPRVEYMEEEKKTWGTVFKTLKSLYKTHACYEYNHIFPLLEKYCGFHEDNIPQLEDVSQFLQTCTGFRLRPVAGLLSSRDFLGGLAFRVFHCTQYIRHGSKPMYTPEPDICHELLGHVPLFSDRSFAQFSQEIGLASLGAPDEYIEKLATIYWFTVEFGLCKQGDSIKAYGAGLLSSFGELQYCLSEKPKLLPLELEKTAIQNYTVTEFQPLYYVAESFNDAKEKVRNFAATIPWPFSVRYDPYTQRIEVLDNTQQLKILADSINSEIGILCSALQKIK

AC50, < 500 nM:
O=C(c1nnc(-c2ccccn2)o1)N1CCc2[nH]cnc2C1c1ccc2ccccc2n1 (stereo in doubt) [Example 45, (R)-(5-(pyridin-2-yl)-1,3,4-oxadiazol-2-yl)(4-(quinolin-2-yl)-6,7-dihydro-1H-imidazo[4,5-c]pyridin-5(4H)-yl)methanone]
O=C([C@H]1CC1(F)F)N1CCc2[nH]cnc2[C@@H]1c1ccc2ccccc2n1 (stereo in doubt) [Example 49, ((R)-2,2-difluorocyclopropyl)((R)-4-(quinolin-2-yl)-6,7-dihydro-1H-imidazo[4,5-c]pyridin-5(4H)-yl)methanone]
O=C(c1ocnc1C(F)F)N1CCc2nc[nH]c2C1c1ccc2ccccc2n1 (stereo in doubt) [Example 51, (R)-(4-(difluoromethyl)oxazol-5-yl)(4-(quinolin-2-yl)-6,7-dihydro-3H-imidazo[4,5-c]pyridin-5(4H)-yl)methanone]
O=C(CC1CC(F)C1)N1CCc2[nH]cnc2C1c1ccc2ccccc2n1 (stereo in doubt) [Example 53, (R)-2-(3-fluorocyclobutyl)-1-(4-(quinolin-2-yl)-6,7-dihydro-1H-imidazo[4,5-c]pyridin-5(4H)-yl)ethanone]
N#Cc1ncoc1C(=O)N1CCc2[nH]cnc2C1c1ccc2ccccc2n1 (stereo in doubt) [Example 57, (R)-5-(4-(quinolin-2-yl)-4,5,6,7-tetrahydro-1H-imidazo[4,5-c]pyridine-5-carbonyl)oxazole-4-carbonitrile]
O=C(CC1(O)CCC1)N1CCc2[nH]cnc2C1c1ccc2ccccc2n1 (stereo in doubt) [Example 59, (R)-2-(1-hydroxycyclobutyl)-1-(4-(quinolin-2-yl)-6,7-dihydro-1H-imidazo[4,5-c]pyridin-5(4H)-yl)ethanone]
O=C(c1nnc(-c2cnn(C(F)F)c2)o1)N1CCc2[nH]cnc2C1c1ccc2ccccc2n1 (stereo in doubt) [Example 63, (R)-(5-(1-(difluoromethyl)-1H-pyrazol-4-yl)-1,3,4-oxadiazol-2-yl)(4-(quinolin-2-yl)-6,7-dihydro-1H-imidazo[4,5-c]pyridin-5(4H)-yl)methanone]
O=C(c1oc(-c2ccccn2)nc1C(F)F)N1CCc2[nH]cnc2C1c1ccc2ccccc2n1 (stereo in doubt) [Example 65, (R)-(4-(difluoromethyl)-2-(pyridin-2-yl)oxazol-5-yl)(4-(quinolin-2-yl)-6,7-dihydro-1H-imidazo[4,5-c]pyridin-5(4H)-yl)methanone]

AC50, 1000 to 5000 nM:
O=C(c1oc(-c2ccccn2)nc1C1CC1)N1CCc2[nH]cnc2C1c1ccc2ccccc2n1 (stereo in doubt) [Example 44, (S)-(4-cyclopropyl-2-(pyridin-2-yl)oxazol-5-yl)(4-(quinolin-2-yl)-6,7-dihydro-1H-imidazo[4,5-c]pyridin-5(4H)-yl)methanone]
O=C(c1ocnc1C(F)F)N1CCc2nc[nH]c2C1c1ccc2ccccc2n1 (stereo in doubt) [Example 52, (S)-(4-(difluoromethyl)oxazol-5-yl)(4-(quinolin-2-yl)-6,7-dihydro-3H-imidazo[4,5-c]pyridin-5(4H)-yl)methanone]
O=C(CC1CC(F)C1)N1CCc2[nH]cnc2C1c1ccc2ccccc2n1 (stereo in doubt) [Example 54, (S)-2-(3-fluorocyclobutyl)-1-(4-(quinolin-2-yl)-6,7-dihydro-1H-imidazo[4,5-c]pyridin-5(4H)-yl)ethanone]
O=C(N1CCc2[nH]cnc2C1c1ccc2ccccc2n1)C(F)(F)C1(O)CCC1 (stereo in doubt) [Example 56, (S)-2,2-difluoro-2-(1-hydroxycyclobutyl)-1-(4-(quinolin-2-yl)-6,7-dihydro-1H-imidazo[4,5-c]pyridin-5(4H)-yl)ethanone]
N#Cc1ncoc1C(=O)N1CCc2[nH]cnc2C1c1ccc2ccccc2n1 (stereo in doubt) [Example 58, (S)-5-(4-(quinolin-2-yl)-4,5,6,7-tetrahydro-1H-imidazo[4,5-c]pyridine-5-carbonyl)oxazole-4-carbonitrile]
O=C(CC1(O)CCC1)N1CCc2[nH]cnc2C1c1ccc2ccccc2n1 (stereo in doubt) [Example 60, (S)-2-(1-hydroxycyclobutyl)-1-(4-(quinolin-2-yl)-6,7-dihydro-1H-imidazo[4,5-c]pyridin-5(4H)-yl)ethanone]

AC50, 500 to 1000 nM:
Cn1cc(-c2nnc(C(=O)N3CCc4[nH]cnc4C3c3ccc4ccccc4n3)o2)cn1 (stereo in doubt) [Example 47, (R)-(5-(1-methyl-1H-pyrazol-4-yl)-1,3,4-oxadiazol-2-yl)(4-(quinolin-2-yl)-6,7-dihydro-1H-imidazo[4,5-c]pyridin-5(4H)-yl)methanone]
O=C(N1CCc2[nH]cnc2C1c1ccc2ccccc2n1)C(F)(F)C1(O)CCC1 (stereo in doubt) [Example 55, (R)-2,2-difluoro-2-(1-hydroxycyclobutyl)-1-(4-(quinolin-2-yl)-6,7-dihydro-1H-imidazo[4,5-c]pyridin-5(4H)-yl)ethanone]
O=C(c1cnc(-c2ccccn2)o1)N1CCc2[nH]cnc2C1c1ccc2ccccc2n1 (stereo in doubt) [Example 61, (R)-(2-(pyridin-2-yl)oxazol-5-yl)(4-(quinolin-2-yl)-6,7-dihydro-1H-imidazo[4,5-c]pyridin-5(4H)-yl)methanone]

AC50, > 5000 nM:
O=C(c1nnc(-c2ccccn2)o1)N1CCc2[nH]cnc2C1c1ccc2ccccc2n1 (stereo in doubt) [Example 46, (S)-(5-(pyridin-2-yl)-1,3,4-oxadiazol-2-yl)(4-(quinolin-2-yl)-6,7-dihydro-1H-imidazo[4,5-c]pyridin-5(4H)-yl)methanone]
Cn1cc(-c2nnc(C(=O)N3CCc4[nH]cnc4C3c3ccc4ccccc4n3)o2)cn1 (stereo in doubt) [Example 48, (S)-(5-(1-methyl-1H-pyrazol-4-yl)-1,3,4-oxadiazol-2-yl)(4-(quinolin-2-yl)-6,7-dihydro-1H-imidazo[4,5-c]pyridin-5(4H)-yl)methanone]
O=C([C@@H]1CC1(F)F)N1CCc2[nH]cnc2C1c1ccc2ccccc2n1 (stereo in doubt) [Example 50, ((S)-2,2-difluorocyclopropyl)((S)-4-(quinolin-2-yl)-6,7-dihydro-1H-imidazo[4,5-c]pyridin-5(4H)-yl)methanone]
O=C(c1cnc(-c2ccccn2)o1)N1CCc2[nH]cnc2C1c1ccc2ccccc2n1 (stereo in doubt) [Example 62, (S)-(2-(pyridin-2-yl)oxazol-5-yl)(4-(quinolin-2-yl)-6,7-dihydro-1H-imidazo[4,5-c]pyridin-5(4H)-yl)methanone]
O=C(c1nnc(-c2cnn(C(F)F)c2)o1)N1CCc2[nH]cnc2C1c1ccc2ccccc2n1 (stereo in doubt) [Example 64, (S)-(5-(1-(difluoromethyl)-1H-pyrazol-4-yl)-1,3,4-oxadiazol-2-yl)(4-(quinolin-2-yl)-6,7-dihydro-1H-imidazo[4,5-c]pyridin-5(4H)-yl)methanone]
